In patent publication US20130203765A1, “DEUTERATED PYRROLOPYRIMIDINE COMPOUNDS AS INHIBITORS OF CDK4/6” (Novartis AG, priority 2010, published 2013):

Experiments:
[1] = Rat pharmacokinetics, intravenous injection 1 mg/kg; format: in vivo, Sprague Dawley rats; settings: for AUC0-7 h of mono-methyl metabolite: IV 1 mg/kg of the parent (Example 1 or Comparator A), metabolite measured; for AUC0-7 h of mono-methyl metabolite / AUC0-7 h: n=2, plasma, mean; for AUC0-7 h: dosed parent compound
Description: (§1) The plasma was separated, frozen and later analyzed. […] In the case of Comparator A the plasma was analyzed for Comparator A and its mono-methyl metabolite, Comparator B. The quantitation of each metabolite and its parent compound was done by LC-MS/MS with standard curves using authentic standards of each compound. The analysis allowed the characterization of the time-concentration profile and the calculation of pharmacokinetic (PK) parameters via non-compartmental methods.

CDK1/cyclin B = CDK1/cyclin B (Homo sapiens, UniProt P06493); experiment: CDK1/cyclin B enzymatic activity assay (IMAP-FP); format: biochemical; settings: 100 nM Tamra Histone-H1 peptide, 20 μM ATP, 120 min
CDK1/cyclin B, sequence (P06493 whole entry, species assumed): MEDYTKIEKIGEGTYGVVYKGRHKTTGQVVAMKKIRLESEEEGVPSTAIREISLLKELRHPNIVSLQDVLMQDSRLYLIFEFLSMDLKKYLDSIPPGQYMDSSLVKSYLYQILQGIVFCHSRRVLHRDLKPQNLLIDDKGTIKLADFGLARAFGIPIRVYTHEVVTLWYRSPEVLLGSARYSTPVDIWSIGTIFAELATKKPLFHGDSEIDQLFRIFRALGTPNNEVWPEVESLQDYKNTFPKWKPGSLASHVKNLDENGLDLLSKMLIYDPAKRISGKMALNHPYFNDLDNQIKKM
CDK1/cyclin B, sequence (P14635 whole entry partner, species assumed): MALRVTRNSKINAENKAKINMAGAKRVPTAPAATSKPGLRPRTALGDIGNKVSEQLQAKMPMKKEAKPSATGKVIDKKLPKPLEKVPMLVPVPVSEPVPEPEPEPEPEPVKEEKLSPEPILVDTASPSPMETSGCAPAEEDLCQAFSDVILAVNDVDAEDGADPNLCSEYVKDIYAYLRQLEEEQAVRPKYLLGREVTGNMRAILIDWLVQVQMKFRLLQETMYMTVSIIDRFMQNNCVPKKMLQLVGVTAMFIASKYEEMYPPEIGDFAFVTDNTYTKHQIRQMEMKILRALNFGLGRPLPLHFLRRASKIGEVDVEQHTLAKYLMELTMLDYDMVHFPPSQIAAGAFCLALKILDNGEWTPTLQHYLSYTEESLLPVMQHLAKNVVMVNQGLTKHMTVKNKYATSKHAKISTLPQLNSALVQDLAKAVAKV
Description: CDK1/Cyclin B Enzymatic Activity Assay A 384-well microtiter IMAP-FP™ (Molecular Devices Trade Mark Technology) endpoint assay was used for CDK1/cyclin B kinase activity measurements. The same assay was used for IC50 determination of small molecule inhibitors. […] No. R8139), 10 μL substrate mixture of Tamra Histone-H1 peptide (Molecular Devices, Cat. No. R7384) and ATP (Amersham Pharmacia, Cat. No. 27-2056-01) in the 1× Reaction Buffer with 1 mM DTT freshly added. […] All reactions were run at room temperature in black 384-well flat-bottom Costar plates (Corning, Cat. […] No. R8139).

CDK4/cyclin D1 = target: T1, CDK4/cyclin D1 (Homo sapiens, UniProt P11802); experiment: CDK4/cyclin D1 enzymatic activity assay (Lance TR-FRET); format: biochemical; settings: 0.3 nM CDK4/cyclin D1, 175 nM pRb152, 3 μM ATP, 60 min
T1 construct: His6 (N); made in house; host or cells: Sf21 insect cells (baculovirus)
T1 sequence (P11802 whole entry): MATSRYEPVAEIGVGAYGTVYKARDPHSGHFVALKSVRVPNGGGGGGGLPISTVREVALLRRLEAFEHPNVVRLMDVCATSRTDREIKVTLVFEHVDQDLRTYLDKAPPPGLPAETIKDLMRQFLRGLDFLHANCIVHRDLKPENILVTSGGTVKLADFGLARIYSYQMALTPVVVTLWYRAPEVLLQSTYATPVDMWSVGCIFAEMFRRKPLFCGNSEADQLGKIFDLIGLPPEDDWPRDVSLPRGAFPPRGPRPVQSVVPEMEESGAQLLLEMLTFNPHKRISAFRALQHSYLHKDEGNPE
T1 sequence (P24385 whole entry partner): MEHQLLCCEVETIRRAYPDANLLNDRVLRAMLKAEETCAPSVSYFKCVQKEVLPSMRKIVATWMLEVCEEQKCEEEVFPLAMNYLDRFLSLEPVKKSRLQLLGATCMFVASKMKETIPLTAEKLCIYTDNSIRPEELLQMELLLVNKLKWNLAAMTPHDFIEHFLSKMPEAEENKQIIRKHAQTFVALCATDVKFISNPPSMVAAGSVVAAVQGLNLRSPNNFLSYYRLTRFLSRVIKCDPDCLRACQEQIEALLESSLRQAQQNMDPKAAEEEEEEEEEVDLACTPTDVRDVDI
Description: The same assay was used for IC50 determination of small molecule inhibitors. In general, the kinase reactions were carried out in 30 μL volumes in the reaction solution containing the following: 2 uL compound (in 20% DMSO), 18 uL CDK4/cyclin D1 in Assay Buffer (50 mM HEPES, pH 7.5, 5 mM MgCl2, 2 mM MnCl2, 1 mM DTT, 0.05% BSA, 0.02% Tween-20), 10 uL of the mixture of pRb152 and ATP. […] All reactions were run at room temperature in 384-well white flat-bottom OptiPlates (Perkin Elmer, Cat. No. 6007290) for 60 min then were quenched by the addition of 10 μL of 120 mM EDTA. The signals were captured by the addition of 40 μL of the Detection Solution containing the following: Detection Buffer (50 mM HEPES, pH 7.5, 30 mM EDTA, 0.1% Triton x-100, 0.05% BSA), 70 ng/mL anti-phospho-pRb(S780) (Cell Signaling Technology, Cat. No. 9307S), 1 nM Lance Eu-W1024-Rabbit anti-IgG (Perkin Elmer, Cat. No. AD0082), and 20 nM SureLight™ Allophycocyanin-Streptavidin (Perkin Elmer, Cat. No. CR130-100). The resulted solutions were incubated at room temperature for 2 hours before read on the Evision Multilabel Reader (Perkin Elmer, Envision 2102-0010).

[2] = Rat pharmacokinetics, oral gavage 5 mg/kg; format: in vivo, Sprague Dawley rats; settings: for AUC0-7 h of mono-methyl metabolite: PO 5 mg/kg of the parent (Example 1 or Comparator A), metabolite measured; for AUC0-7 h of mono-methyl metabolite / AUC0-7 h: n=3, plasma; for AUC0-7 h of mono-methyl metabolite / Tmax of mono-methyl metabolite / Tmax / AUC0-7 h / Cmax: mean; for Tmax of mono-methyl metabolite: PO 5 mg/kg of the parent, n=3, metabolite measured; for Tmax / AUC0-7 h / Cmax: PO 5 mg/kg; for Tmax / Cmax: n=3, dosed parent compound; for AUC0-7 h: dosed parent compound
Description: as §1

AUC0-7 h of mono-methyl metabolite [1] [µM·h] | AUC0-7 h of mono-methyl metabolite [2] [µM·h] | Tmax of mono-methyl metabolite [2] [h] | Compound | T½ ([1]; IV 1 mg/kg, n=2, mean) [h] | AUC0-7 h ([1]; IV 1 mg/kg) [µM·h] | Tmax [2] [h] | AUC0-7 h [2] [µM·h] | other results
0.066 | 0.128 | 3.3 | [2H]C([2H])([2H])NC(=O)c1cc2cnc(Nc3ccc(N4CCNCC4)cn3)nc2n1C1CCCC1 [Example 2, 7-cyclopentyl-2-(5-piperzin-1-yl-pyridin-2-ylamino)-7H-pyrrolo[2,3-d]pyrimidine-6-carboxylic acid methylamide-d3] | – | – | – | – | IC50 (CDK1/cyclin B; 0.25 nM CDK1/cyclin B): > 15 µM; IC50 (CDK4/cyclin D1): 0.132 µM
0.156 | 0.372 | 4.3 | CNC(=O)c1cc2cnc(Nc3ccc(N4CCNCC4)cn3)nc2n1C1CCCC1 [Comparator B, 7-cyclopentyl-2-(5-piperazin-1-yl-pyridin-2-ylamino)-7H-pyrrolo[2,3-d]pyrimidine-6-carboxylic acid methylamide, reference compound] | – | – | – | – | –
– | – | – | CN(C)C(=O)c1cc2cnc(Nc3ccc(N4CCNCC4)cn3)nc2n1C1CCCC1 [Comparator A, 7-cyclopentyl-2-(5-piperazin-1-yl-pyridin-2-ylamino)-7H-pyrrolo[2,3-d]pyrimidine-6-carboxylic acid dimethylamide, reference compound] | 2.3 | 1.028 | 1.5 | 1.618 | clearance ([1]; Sprague Dawley, plasma, IV 1 mg/kg, n=2, mean): 34 mL/min/kg; Vd ([1]; Sprague Dawley, plasma, IV 1 mg/kg, n=2, mean, read-out: Vdss): 5.4 L/kg; bioavailability ([2]; Sprague Dawley, plasma, PO 5 mg/kg vs IV 1 mg/kg, read-out: F (absolute oral bioavailability)): 31%; Cmax ([2]; Sprague Dawley, plasma): 348 nM
– | – | – | 7-cyclopentyl-2-(5-piperzin-1-yl-pyridin-2-ylamino)-7H-pyrrolo[2,3-d]pyrimidine-6-carboxylic acid dimethylamide-d5 [Example 1] | 3.2 | 0.883 | 2 | 2.432 | VDss higher than VDss of Comparator A ([1]; 1 mg/kg iv): approximately 1.6 fold; CL ([1]; IV 1 mg/kg, n=2, mean): 37 mL/min/kg; Vdss ([1]; IV 1 mg/kg, n=2, mean): 8.6 L/kg; IC50 (CDK1/cyclin B; […] CDK1/cyclin B): > 15 µM; Absolute oral bioavailability higher than Comparator A ([2]; 5 mg/kg po): 1.8 fold; F (absolute oral bioavailability) ([2]; PO 5 mg/kg vs IV 1 mg/kg): 55%; Cmax [2]: 549 nM
